Legend:
CD19+ B-cell = test: Phase 2b trial: plasma CD19+ B-cell count in the placebo run-out cohort; format: in vivo, human; details: Cohort 1
Experimental: OUTCOMES: The outcomes evaluated in this example include measuring the incidence of relapse during 4-week placebo run-in and run-out, the number of new Gd-enhancing T1 lesions detected with magnetic resonance imaging (MRI) at Weeks 4, 8 and 16, the number of new or enlarging T2 lesions measured at Weeks 4, 8 and 16, and the plasma CD19+B-cell count measured in the placebo run-out cohort at baseline, 1 hour after the first dose, then at Week 12 and Week 16 (FIG. 3).

[1] = test system: patients with relapsing multiple sclerosis; test: Phase 2b dose-finding study: number of new Gd-enhancing T1-hyperintense lesions by brain MRI; details: for New Gd-enhancing T1-hyperintense lesion count, observed mean (SD): 12 weeks of treatment, Cohorts 1 and 2 pooled; for Patients with no new Gd-enhancing T1 lesions / Gd-enhancing T1 lesion count, mean (SD): Cohort 1 (all doses); for Gd+ lesion count, mean (SD): Cohort 1, 60 mg/day
Experimental: Cranial (brain) MRI with and without Gd contrast is performed. Basic MRIs are performed for all participants at all study sites and consist of T2- and T1-weighted sequences without and with Gd contrast.
(§1) New T1 Gd-enhancing hyperintense and new and enlarging T2 lesions are evaluated at each visit as per the SoA (Table 1), comparing lesion count to that from the previous MRI scan. Unless specified otherwise, the baseline brain MRI is used as the reference to assess all MRI-derived endpoints. The baseline MRI is the last MRI performed before the randomization visit. Standardized endpoint evaluation is assured by central review of brain MRI scans. Blinded central review is performed for all MRI-derived endpoints. Magnetic resonance imaging reviewers are blinded to treatment assignments and to other participant data.
The first step of this procedure tests for an efficacy signal (compared to the null hypothesis of a flat, no dose-response curve) in a procedure that controls the type 1 error. […] The second step is the Dose estimation of the dose-response curve, provided that an efficacy signal is established in the first step.
The 4-week post-randomization placebo data from Cohort 2 (i.e., Week 4 data from Cohort 2) is utilized as the placebo data at Week 12 in analysis, under the assumption of a constant rate of Gd-enhancing T1-hyperintense lesion formation if participants would be receiving placebo over 12 weeks. Participants in Cohort 2 contribute to the placebo data (at Week 4) as well as the data for 4 BTK inhibitor doses (at Week 16). […] If step 1 yields significant results, the best fitting model from the 6 predefined candidate models is chosen using the generalized Akaike information criterion (AIC).
The first step of this procedure tested for an efficacy signal (compared to the null hypothesis of a flat, no dose-response curve) in a procedure that controls the type 1 error.
The MRI assessments were excluded from the analyses if the participant was receiving systemic corticosteroids within the 30 days prior to the MRI assessment date. The 4-week post-randomization placebo data from Cohort 2 (i.e., Week 4 data from Cohort 2) was utilized as the placebo data at Week 12 in analysis under the assumption of a constant rate of Gd-enhancing T1-hyperintense lesion formation if participants were to receive placebo over 12 weeks. Participants in Cohort 2 contributed to the placebo data (at Week 4) as well as the data for 4 BTK inhibitor doses (at Week 16). The 4-week placebo run-out data from Cohort 1 was not included in the analysis. […] Test statistics and adjusted p-values were provided for all 6 candidate models.

CYP2C8 = target: T1, CYP2C8 (Homo sapiens, UniProt P10632); test: Preclinical drug metabolism studies: CYP2C8; format: in vitro ADME
T1 sequence (P10632 1-490): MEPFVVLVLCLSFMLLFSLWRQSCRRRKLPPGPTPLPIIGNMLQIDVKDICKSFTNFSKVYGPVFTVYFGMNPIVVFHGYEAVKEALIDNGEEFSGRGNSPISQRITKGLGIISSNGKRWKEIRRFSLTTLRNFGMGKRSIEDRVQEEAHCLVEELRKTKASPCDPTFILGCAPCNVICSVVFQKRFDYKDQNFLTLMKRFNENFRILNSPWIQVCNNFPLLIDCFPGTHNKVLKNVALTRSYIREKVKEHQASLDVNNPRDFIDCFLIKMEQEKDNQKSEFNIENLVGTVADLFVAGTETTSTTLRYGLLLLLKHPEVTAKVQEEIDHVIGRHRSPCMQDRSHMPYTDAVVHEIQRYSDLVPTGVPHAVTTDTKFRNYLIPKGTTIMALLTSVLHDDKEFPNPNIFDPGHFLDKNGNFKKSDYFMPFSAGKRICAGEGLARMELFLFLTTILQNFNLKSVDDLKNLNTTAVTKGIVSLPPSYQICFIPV
Description: See Table 12 for the list of drugs not to be used.

[2] = test system: patients with relapsing multiple sclerosis; test: Phase 2b dose-finding study: number of new or enlarging T2 lesions by brain MRI; details: for Number of new/enlarging T2 lesions, mean (SD): Cohort 1 (all doses)
Experimental: as §1
For the number of new or enlarging T2 lesions, descriptive summary statistics over time (4, 8, 12, and 16 weeks) is provided for each of the 4 BTK inhibitor doses. Further, a similar MCP-Mod approach is explored if it is deemed reasonable to extrapolate the Week 4 data from Cohort 2 to the Week 12 placebo data.
For each secondary endpoint, a similar negative binomial model and the MCP-Mod procedure were used. As it is reasonable to assume a constant rate of lesion formation over 12 weeks under placebo treatment, the same approach as that utilized for the primary endpoint was used, i.e., using the Week 4 data in Cohort 2 as the Week 12 placebo data while accounting for within-participant correlation. Descriptive summary statistics over time were provided for each of the 4 BTK inhibitor dose groups.
Magnetic resonance imaging (MRI) scans were obtained at screening and every 4 weeks for 16 weeks.

[3] = test system: patients with relapsing multiple sclerosis; test: Long-term safety extension: number of new Gd-enhancing T1-hyperintense lesions (MRI); format: in vivo, human; details: for Number of new Gd-enhancing lesions, mean±SD: LTS W96
Experimental: In the current open-label extension Part B, all patients receive 60 mg/day. MRI outcomes include numbers of new Gd-enhancing and new/enlarging T2 lesions, T2 lesion volume change from baseline, slowly evolving lesions (SEL), and paramagnetic rim lesions (PRL).
The Week 0 value is from the last MRI obtained in the dose-finding study if performed within 6 weeks prior to Day 1 of the long-term safety study For some patients the Week 0 value began after a gap period ranging from 0-21 weeks. For patients where the gap period was 0 weeks, the Week 0 value began immediately after the completion of Week 16 of the dose-finding study. For patients where the gap period was greater than 6 weeks a new MRI was obtained prior to Day 1 of the long-term safety study.
If from Week 16 of the dose-finding study (Cohort 2), it is also included in Week 12. If from Week 16 of the dose-finding study (Cohort 1), it is after 4 weeks placebo run out.

[4] = 5 mg daily, after 12 weeks of treatment
[5] = 15 mg daily, after 12 weeks of treatment
[6] = 30 mg daily, after 12 weeks of treatment
[7] = 60 mg daily, after 12 weeks of treatment
[8] = after 4 weeks of placebo run-out

C=CC(=O)N1CCC[C@@H](n2c(=O)n(-c3ccc(Oc4ccccc4)cc3)c3c(N)nccc32)C1 [the BTK inhibitor, (R)-1-(1-acryloylpiperidin-3-yl)-4-amino-3-(4-phenoxyphenyl)-1H-imidazo[4,5-c]pyridin-2(3H)-one]
Number of B cells in the peripheral circulation after placebo run-out (CD19+ B-cell; after the 4-week placebo run-out period): returned towards baseline level
Number of B cells in the peripheral circulation after the first dose (CD19+ B-cell; within 1 hour after the first dose): increased
New Gd-enhancing T1-hyperintense lesion count, Mean [1, 4]: 1.39
New Gd-enhancing T1-hyperintense lesion count, Median [1, 4]: 0.00
New Gd-enhancing T1-hyperintense lesion count, observed mean (SD) ([1]; 5 mg once daily): 1.39 (3.20)
New Gd-enhancing T1-hyperintense lesion count, Mean [1, 5]: 0.77
New Gd-enhancing T1-hyperintense lesion count, Median [1, 5]: 0.00
New Gd-enhancing T1-hyperintense lesion count, observed mean (SD) ([1]; 15 mg once daily): 0.77 (1.48)
New Gd-enhancing T1-hyperintense lesion count, Mean [1, 6]: 0.76
New Gd-enhancing T1-hyperintense lesion count, Median [1, 6]: 0.00
New Gd-enhancing T1-hyperintense lesion count, observed mean (SD) ([1]; 30 mg once daily): 0.76 (3.31)
New Gd-enhancing T1-hyperintense lesion count, Mean [1, 7]: 0.13
New Gd-enhancing T1-hyperintense lesion count, Median [1, 7]: 0.00
Patients with >=3 new Gd-enhancing T1-hyperintense lesions [1, 7]: 0 n
New Gd-enhancing T1-hyperintense lesion count, observed mean (SD) ([1]; 60 mg once daily): 0.13 (0.43)
Relative reduction in new Gd-enhancing T1-hyperintense lesions compared with placebo ([1]; 60 mg, 12 weeks, negative binomial regression model adjusted for baseline lesion activity, 95% CI [28.02%, 96.88%], nominal p=0.0178): 85.02%
Participants with no new Gd-enhancing T1-hyperintense lesions ([1]; 60 mg, end of 12 weeks of treatment, 28 of 31 with evaluable MRI): 90.30%
Dose-response for reduction in number of new active Gd-enhancing T1-hyperintense brain lesions ([1]; 5-60 mg once daily, after 12 weeks of treatment, MCP-Mod): dose-response relationship
Patients with no new Gd-enhancing T1 lesions ([1]; 4 weeks after discontinuing tolebrutinib (placebo run-out)): 85.2%
Gd-enhancing T1 lesion count, mean (SD) [1, 8]: 0.44 (1.70)
Gd-enhancing T1 lesion count, mean (SD) ([1]; after 12 weeks of tolebrutinib): 0.37 (0.99)
Patients with no new Gd-enhancing T1 lesions ([1]; after 12 weeks of tolebrutinib treatment): 83.3%
Gd+ lesion count, mean (SD) [1, 8]: 0.31 (0.70)
Gd+ lesion count, mean (SD) ([1]; after 12 weeks of tolebrutinib): 0.20 (0.56)
Substrate of CYP2C8 isoenzyme (CYP2C8): substrate
New or enlarging T2 lesion count, Mean [2, 4]: 1.90
New or enlarging T2 lesion count, Median [2, 4]: 0.00
Count of new and enlarging T2 lesions, observed mean (SD) ([2]; 5 mg once daily, end of 12 weeks of treatment): 1.90 (3.97)
New or enlarging T2 lesion count, Mean [2, 5]: 1.32
New or enlarging T2 lesion count, Median [2, 5]: 1.00
Count of new and enlarging T2 lesions, observed mean (SD) ([2]; 15 mg once daily, end of 12 weeks of treatment): 1.32 (1.83)
New or enlarging T2 lesion count, Mean [2, 6]: 1.30
New or enlarging T2 lesion count, Median [2, 6]: 0.00
Count of new and enlarging T2 lesions, observed mean (SD) ([2]; 30 mg once daily, end of 12 weeks of treatment): 1.30 (4.90)
New or enlarging T2 lesion count, Mean [2, 7]: 0.23
New or enlarging T2 lesion count, Median [2, 7]: 0.00
Patients with >=3 new or enlarging T2 lesions [2, 7]: 0 n
Count of new and enlarging T2 lesions, observed mean (SD) ([2]; 60 mg once daily, end of 12 weeks of treatment): 0.23 (0.62)
Adjusted relative reduction in count of new and enlarging T2 lesions relative to placebo ([2]; 60 mg, 12 weeks, 95% CI [68.39%, 96.41%], nominal p=0.0001): 89.34%
Participants with no new and enlarging T2 lesions ([2]; 60 mg, end of 12 weeks of treatment, 27 of 31 with evaluable MRI): 87.1%
Number of new/enlarging T2 lesions, mean (SD) ([2]; Week 12): 0.58 (1.27)
Number of new/enlarging T2 lesions, mean (SD) [2, 8]: 0.95 (2.72)
Number of new GD-enhancing T1-Hyperintense lesions, Mean (SD) ([3]; 5/60 mg, Week 0): 1.13 (2.66)
Number of new GD-enhancing T1-Hyperintense lesions, Median ([3]; 5/60 mg, Week 0): 0.00
Number of new GD-enhancing T1-Hyperintense lesions, Mean (SD) ([3]; 5/60 mg, Week 12): 1.03 (2.57)
Number of new GD-enhancing T1-Hyperintense lesions, Median ([3]; 5/60 mg, Week 12): 0.00
Number of new Gd-enhancing lesions, mean±SD ([3]; 5/60-mg arm): 0.85±2.5
Number of new GD-enhancing T1-Hyperintense lesions, Mean (SD) ([3]; 15/60 mg, Week 0): 1.00 (1.88)
Number of new GD-enhancing T1-Hyperintense lesions, Median ([3]; 15/60 mg, Week 0): 0.00
Number of new GD-enhancing T1-Hyperintense lesions, Mean (SD) ([3]; 15/60 mg, Week 12): 0.80 (1.49)
Number of new GD-enhancing T1-Hyperintense lesions, Median ([3]; 15/60 mg, Week 12): 0.00
Number of new Gd-enhancing lesions, mean±SD ([3]; 15/60-mg arm): 0.41±0.91
Number of new GD-enhancing T1-Hyperintense lesions, Mean (SD) ([3]; 30/60 mg, Week 0): 1.68 (4.29)
Number of new GD-enhancing T1-Hyperintense lesions, Median ([3]; 30/60 mg, Week 0): 0.00
Number of new GD-enhancing T1-Hyperintense lesions, Mean (SD) ([3]; 30/60 mg, Week 12): 0.78 (3.36)
Number of new GD-enhancing T1-Hyperintense lesions, Median ([3]; 30/60 mg, Week 12): 0.00
Number of new Gd-enhancing lesions, mean±SD ([3]; 30/60-mg arm): 0.90±2.16
Number of new GD-enhancing T1-Hyperintense lesions, Mean (SD) ([3]; 60/60 mg, Week 0): 0.35 (0.61)
Number of new GD-enhancing T1-Hyperintense lesions, Median ([3]; 60/60 mg, Week 0): 0.00
Number of new GD-enhancing T1-Hyperintense lesions, Mean (SD) ([3]; 60/60 mg, Week 12): 0.13 (0.43)
Number of new GD-enhancing T1-Hyperintense lesions, Median ([3]; 60/60 mg, Week 12): 0.00
Number of new Gd-enhancing lesions, mean±SD ([3]; 60/60-mg arm): 0.31±0.66
Number of new GD-enhancing T1-Hyperintense lesions, Mean (SD) ([3]; All (N = 125), Week 0): 1.04 (2.72)
Number of new GD-enhancing T1-Hyperintense lesions, Median ([3]; All (N = 125), Week 0): 0.00
Number of new GD-enhancing T1-Hyperintense lesions, Mean (SD) ([3]; All (N = 125), Week 12): 0.69 (2.27)
Number of new GD-enhancing T1-Hyperintense lesions, Median ([3]; All (N = 125), Week 12): 0.00

Source: patent US20260272907A1, “Therapeutic Tyrosine Kinase Inhibitors for Multiple Sclerosis” (Principia Biopharma Inc., priority 2022, published 2026)
